Results from ChEMBL document CHEMBL1615344, “Cerep in vitro phospholipidosis assay data”.

How the values were obtained:
[1] = tested on: Phospholipidosis; experiment: (§1) Cerep Phospholipidosis assay (HepG2 cells); format: ADME, cell-based; conditions: human, hepg2
[2] = as §1; format: ADME, cell-based; conditions: human, HepG2 cells; read-out: Maximum test concentration that did not exhibit cytotoxicity

Row | SMILES | Phospholipidosis as % of positive control [1] [%] | MNTC [2] [µM]
1 | O=C(CCCN1CCC(O)(c2ccc(Cl)cc2)CC1)c1ccc(F)cc1 [HALOPERIDOL] | 42.1 | 12.5
2 | Nc1c(Br)cc(Br)cc1CN[C@H]1CC[C@H](O)CC1 [AMBROXOL] | 29.7 | 50
3 | CCN(CC)CCCC(C)Nc1ccnc2cc(Cl)ccc12 (stereo not drawn) [CHLOROQUINE] | 22.8 | 10
4 | CC(=O)N1CCN(c2ccc(OCC3COC(Cn4ccnc4)(c4ccc(Cl)cc4Cl)O3)cc2)CC1 (stereo not drawn) [KETOCONAZOLE] | 52 | 12.5
5 | CC(C)NCC(O)COc1cccc2ccccc12 (stereo not drawn) [PROPRANOLOL] | 36 | 25
6 | CN(C)CCC=C1c2ccccc2CCc2ccccc21 [AMITRIPTYLINE] | 49.8 | 20
7 | CN(C)CCCN1c2ccccc2Sc2ccc(Cl)cc21 [CHLORPROMAZINE] | 54.7 | 5
8 | C=C[C@H]1C[N@@]2CC[C@H]1C[C@@H]2[C@@H](O)c1ccnc2ccc(OC)cc12 [QUINIDINE] | 3.2 | 25
9 | CC(C)NCC(O)c1ccc(NS(C)(=O)=O)cc1 (stereo not drawn) [SOTALOL] | 0.3 | 50
10 | OCCOCCN1CCN(C(c2ccccc2)c2ccc(Cl)cc2)CC1 (stereo not drawn) [HYDROXYZINE] | 35.8 | 25
11 | CCCCc1oc2ccccc2c1C(=O)c1cc(I)c(OCCN(CC)CC)c(I)c1 [AMIODARONE] | 38.4 | 6.25
12 | CC(CCc1ccccc1)NCC(O)c1ccc(O)c(C(N)=O)c1 (stereo not drawn) [LABETALOL] | 5.3 | 25
13 | CC/C(=C(\c1ccccc1)c1ccc(OCCN(C)C)cc1)c1ccccc1 [TAMOXIFEN] | 53 | 6.25
14 | CN1CCN(C2=Nc3cc(Cl)ccc3Nc3ccccc32)CC1 [CLOZAPINE] | 18.9 | 12.5
15 | CN(C)CCC=C1c2ccccc2COc2ccccc21 [DOXEPIN] | 36.4 | 25
16 | CC1COc2c(N3CCN(C)CC3)c(F)cc3c(=O)c(C(=O)O)cn1c23 (stereo not drawn) [OFLOXACIN] | 0.3 | 50

Row | SMILES | Phospholipidosis as % of positive control [1] [%] | MNTC [2] [µM]
17 | CCN(CC)CCOc1ccc2c(c1)C(=O)c1cc(OCCN(CC)CC)ccc1-2 [TILORONE] | 20.2 | 3.13
18 | CCCC(CCC)C(=O)O [VALPROIC ACID] | 0.2 | 100
19 | CNCCCC12CCC(c3ccccc31)c1ccccc12 [MAPROTILINE] | 42.2 | 6.25
20 | CC[C@H]1OC(=O)[C@H](C)[C@@H](O[C@H]2C[C@@](C)(OC)[C@@H](O)[C@H](C)O2)[C@H](C)[C@@H](O[C@@H]2O[C@H](C)C[C@H](N(C)C)[C@H]2O)[C@](C)(O)C[C@@H](C)CN(C)[C@H](C)[C@@H](O)[C@]1(C)O [AZITHROMYCIN] | 26.7 | 25
21 | CCN(CC)CCOc1ccc(C(O)(Cc2ccc(Cl)cc2)c2ccc(C)cc2)cc1 (stereo not drawn) [TRIPARANOL] | 44.9 | 3.13
22 | Cc1cccc(CN2CCN(C(c3ccccc3)c3ccc(Cl)cc3)CC2)c1 (stereo not drawn) [MECLIZINE] | 10.5 | 25
23 | C1CCC(C(CC2CCCCN2)C2CCCCC2)CC1 (stereo not drawn) [PERHEXILINE] | 36 | 3.13
24 | CC[C@H]1OC(=O)[C@H](C)[C@@H](O[C@H]2C[C@@](C)(OC)[C@@H](O)[C@H](C)O2)[C@H](C)[C@@H](O[C@@H]2O[C@H](C)C[C@H](N(C)C)[C@H]2O)[C@](C)(O)C[C@@H](C)C(=O)[C@H](C)[C@@H](O)[C@]1(C)O [ERYTHROMYCIN] | 61.9 | 50
25 | CC1=CC(=O)c2ccccc2C1=O [MENADIONE] | 1 | 3.13
26 | CN(C)CCCC1(c2ccc(F)cc2)OCc2cc(C#N)ccc21 (stereo not drawn) [CITALOPRAM] | 19.6 | 100
27 | CN[C@H]1CC[C@@H](c2ccc(Cl)c(Cl)c2)c2ccccc21 [SERTRALINE] | 100 | 3.13
28 | CN(C)CCCN1c2ccccc2CCc2ccccc21 [IMIPRAMINE] | 2.1 | 6.25
29 | CN(Cc1cc(Br)cc(Br)c1N)C1CCCCC1 [BROMHEXINE] | 30.1 | 50
30 | CC(=O)Nc1ccc(O)cc1 [ACETAMINOPHEN] | 0.3 | 100
31 | NCC[C@H](O)C(=O)N[C@@H]1C[C@H](N)[C@@H](O[C@H]2O[C@H](CN)[C@@H](O)[C@H](O)[C@H]2O)[C@H](O)[C@H]1O[C@H]1O[C@H](CO)[C@@H](O)[C@H](N)[C@H]1O [AMIKACIN] | 4.9 | 25
32 | CNCCC(Oc1ccc(C(F)(F)F)cc1)c1ccccc1 (stereo not drawn) [FLUOXETINE] | – | 5
